Where a name gives a salt, the structure may show the parent alone.
COc1cc2ncnc(N3CCN(C(=S)Nc4ccc5ccc6cccc7ccc4c5c67)CC3)c2cc1OC
melting point: 140 to 145 °C

COc1cc2ncnc(N3CCN(C(=O)Nc4ccc(CNCc5ccncc5)cc4)CC3)c2cc1OC.Cl.Cl.Cl
melting point: 182 to 185 °C

COc1cc2ncnc(N3CCN(C(=O)Nc4ccc([N+](=O)[O-])c([N+](=O)[O-])c4)CC3)c2cc1OC
melting point: 273 to 274 °C

Cl.Cl.S=C(NCc1cccnc1)N1CCN(c2ncnc3cccc(Cl)c23)CC1
melting point: 150 to 152 °C

Cc1ccc2c(N3CCN(C(=S)NCc4cccnc4)CC3)ncnc2c1.Cl.Cl
melting point: 180 to 183 °C

COc1ccc2c(N3CCN(C(=S)NCc4cccnc4)CC3)ncnc2c1OC.Cl
melting point: 208 to 209 °C

Cl.Cl.S=C(NCc1cccnc1)N1CCN(c2ccnc3ccccc23)CC1
melting point: 183 to 185 °C

Cl.Cl.S=C(NCc1cccnc1)N1CCN(c2ccnc3ccc(Cl)cc23)CC1
melting point: 162 to 164 °C

Cl.Cl.S=C(NCc1cccnc1)N1CCN(c2ccnc3cc(Cl)ccc23)CC1
melting point: 170 to 173 °C

COc1cc2ccnc(N3CCN(C(=S)NCc4cccnc4)CC3)c2cc1OC.Cl.Cl
melting point: 195 to 197 °C

COc1cc2ncnc(N3CCCN(C(=S)NCc4cccnc4)CC3)c2cc1OC.Cl.Cl
melting point: 177 to 183 °C

COc1cc(OC)c2ncnc(N3CCN(C(=S)NCc4cccnc4)CC3)c2c1 (as salt: hydrochloride) [Compound 382, 4-(6,8-Dimethoxy-4-quinazolinyl)-N-(3-picolyl)-1-piperazinethiocarboxamide]
melting point: 164 to 167 °C

COc1cc2ncnc(N3CCN(C(=S)Nc4ccc(C(=O)NC5CCOC5=O)cc4)CC3)c2cc1OC (racemic) [Compound 92, (dl)-N-[4-(2,3,4,5-Tetrahydro-2-oxofuran-3-ylcarbamoyl)phenyl]-4-(6,7-dimethoxy-4-quinazolinyl)-1-piperazinethiocarboxamide]
melting point: 174 to 178 °C

COc1cc2ncnc(N3CCN(C(=O)Nc4ccccc4)CC3)c2cc1OC [Compound 1, 4-(6,7-Dimethoxy-4-quinazolinyl)-N-phenyl-1-piperazinecarboxamide]
melting point: 121 to 123 °C

COc1cc2ncnc(N3CCN(C(=S)Nc4ccccc4)CC3)c2cc1OC [Compound 2, 4-(6,7-Dimethoxy-4-quinazolinyl)-N-phenyl-1-piperazinethiocarboxamide]
melting point: 230 to 232 °C

COc1cc2ncnc(N3CCN(C(=O)NCc4ccccc4)CC3)c2cc1OC [Compound 3, N-Benzyl-4-(6,7-dimethoxy-4-quinazolinyl)-1-piperazinecarboxamide]
melting point: 167 to 168 °C

COc1cc2ncnc(N3CCN(C(=O)NC(=O)c4ccccc4)CC3)c2cc1OC [Compound 4, N-Benzoyl-4-(6,7-dimethoxy-4-quinazolinyl)-1-piperazinecarboxamide]
melting point: 122 to 124 °C

COc1cc2ncnc(N3CCN(C(=O)NS(=O)(=O)c4ccccc4)CC3)c2cc1OC [Compound 5, N-Benzenesulfonyl-4-(6,7-dimethoxy-4-quinazolinyl)-1-piperazinecarboxamide]
melting point: 98 to 100 °C

COc1cc2ncnc(N3CCN(C(=S)NCCc4ccccc4)CC3)c2cc1OC [Compound 6, 4-(6,7-Dimethoxy-4-quinazolinyl)-N-(2-phenylethyl)-1-piperazinethiocarboxamide]
melting point: 76 to 80 °C

COc1cc2ncnc(N3CCN(C(=S)NCCCCc4ccccc4)CC3)c2cc1OC [Compound 7, 4-(6,7-Dimethoxy-4-quinazolinyl)-N-(4-phenylbutyl)-1-piperazinethiocarboxamide]
melting point: 112 to 114 °C

COc1cc2ncnc(N3CCN(C(=O)Nc4cccc5ccccc45)CC3)c2cc1OC [Compound 8, 4-(6,7-Dimethoxy-4-quinazolinyl)-N-(1-naphthyl)-1-piperazinecarboxamide]
melting point: 254 to 256 °C

COc1cc2ncnc(N3CCN(C(=S)NCC(c4ccccc4)c4ccccc4)CC3)c2cc1OC [Compound 11, 4-(6,7-Dimethoxy-4-quinazolinyl)-N-(2,2-diphenylethyl)-1-piperazinethiocarboxamide]
melting point: 93 to 94 °C

COc1cc2ncnc(N3CCN(C(=O)NC4CCCCC4)CC3)c2cc1OC [Compound 13, N-Cyclohexyl-4-(6,7-dimethoxy-4-quinazolinyl)-1-piperazinecarboxamide]
melting point: 208 to 210 °C

C#CCNC(=S)N1CCN(c2ncnc3cc(OC)c(OC)cc23)CC1 [Compound 16, 4-(6,7-Dimethoxy-4-quinazolinyl)-N-(2-propynyl)-1-piperazinethiocarboxamide]
melting point: 158 to 160 °C

COc1cc2ncnc(N3CCN(C(=O)Nc4ccc(C)cc4)CC3)c2cc1OC [Compound 17, 4-(6,7-Dimethoxy-4-quinazolinyl)-N-(4-tolyl)-1-piperazinecarboxamide]
melting point: 225 to 228 °C

CCc1ccc(NC(=O)N2CCN(c3ncnc4cc(OC)c(OC)cc34)CC2)cc1 [Compound 18, N-(4-Ethylphenyl)-4-(6,7-Dimethoxy-4-quinazolinyl)-1-piperazinecarboxamide]
melting point: 251 to 252 °C

CCCCc1ccc(NC(=O)N2CCN(c3ncnc4cc(OC)c(OC)cc34)CC2)cc1 [Compound 20, N-(4-Butylphenyl)-4-(6,7-dimethoxy-4-quinazolinyl)-1-piperazinecarboxamide]
melting point: 216 to 222 °C

CCCCc1ccc(NC(=S)N2CCN(c3ncnc4cc(OC)c(OC)cc34)CC2)cc1 [Compound 21, N-(4-Butylphenyl)-4-(6,7-dimethoxy-4-quinazolinyl)-1-piperazinethiocarboxamide]
melting point: 171 to 173 °C

COc1cc2ncnc(N3CCN(C(=S)Nc4ccc(C(C)(C)C)cc4)CC3)c2cc1OC [Compound 22, N-(4-tert-Butylphenyl)-4-(6,7-dimethoxy-4-quinazolinyl)-1-piperazinethiocarboxamide]
melting point: 221 to 224 °C

COc1cc2ncnc(N3CCN(C(=O)Nc4ccc(C(F)(F)F)cc4)CC3)c2cc1OC [Compound 23, 4-(6,7-Dimethoxy-4-quinazolinyl)-N-[4-(trifluoromethyl)phenyl]-1-piperazinecarboxamide]
melting point: 227 to 230 °C

C=Cc1ccc(NC(=S)N2CCN(c3ncnc4cc(OC)c(OC)cc34)CC2)cc1 [Compound 24, 4-(6,7-Dimethoxy-4-quinazolinyl)-N-(4-vinylphenyl)-1-piperazinethiocarboxamide]
melting point: 110 to 111 °C

COc1cc2ncnc(N3CCN(C(=O)Nc4ccc(C5CCCCC5)cc4)CC3)c2cc1OC [Compound 26, N-(4-Cyclohexylphenyl)-4-(6,7-dimethoxy-4-quinazolinyl)-1-piperazinecarboxamide]
melting point: 238 to 241 °C

COc1cc2ncnc(N3CCN(C(=O)Nc4cc(C)cc(C)c4)CC3)c2cc1OC [Compound 29, 4-(6,7-Dimethoxy-4-quinazolinyl)-N-(3,5-dimethylphenyl)-1-piperazinecarboxamide]
melting point: 223 to 226 °C

COc1cc2ncnc(N3CCN(C(=O)Nc4ccc(C)c(C)c4)CC3)c2cc1OC [Compound 30, 4-(6,7-Dimethoxy-4-quinazolinyl)-N-(3,4-dimethylphenyl)-1-piperazinecarboxamide]
melting point: 202 to 203 °C

COc1cc2ncnc(N3CCN(C(=O)Nc4c(C(C)C)cccc4C(C)C)CC3)c2cc1OC [Compound 31, N-(2,6-Diisopropylphenyl)-4-(6,7-dimethoxy-4-quinazolinyl)-1-piperazinecarboxamide]
melting point: 280 to 282 °C

COc1cc2ncnc(N3CCN(C(=O)Nc4cc(C(F)(F)F)cc(C(F)(F)F)c4)CC3)c2cc1OC [Compound 32, N-[3,5-Bis(trifluoromethyl)phenyl]-4-(6,7-dimethoxy-4-quinazolinyl)-1-piperazinecarboxamide]
melting point: 251 to 252 °C

COc1cc2ncnc(N3CCN(C(=O)Nc4ccccc4F)CC3)c2cc1OC [Compound 34, 4-(6,7-Dimethoxy-4-quinazolinyl)-N-(2-fluorophenyl)-1-piperazinecarboxamide]
melting point: 176 to 177 °C

COc1cc2ncnc(N3CCN(C(=O)Nc4cccc(F)c4)CC3)c2cc1OC [Compound 35, 4-(6,7-Dimethoxy-4-quinazolinyl)-N-(3-fluorophenyl)-1-piperazinecarboxamide]
melting point: 214 to 220 °C

COc1cc2ncnc(N3CCN(C(=O)Nc4ccc(F)cc4)CC3)c2cc1OC [Compound 36, 4-(6,7-Dimethoxy-4-quinazolinyl)-N-(4-fluorophenyl)-1-piperazinecarboxamide]
melting point: 198 to 202 °C

COc1cc2ncnc(N3CCN(C(=S)Nc4ccc(F)cc4)CC3)c2cc1OC [Compound 37, 4-(6,7-Dimethoxy-4-quinazolinyl)-N-(4-fluorophenyl)-1-piperazinethiocarboxamide]
melting point: 212 to 217 °C

COc1cc2ncnc(N3CCN(C(=O)Nc4ccccc4Cl)CC3)c2cc1OC [Compound 38, N-(2-Chlorophenyl)-4-(6,7-dimethoxy-4-quinazolinyl)-1-piperazinecarboxamide]
melting point: 186 to 187 °C

COc1cc2ncnc(N3CCN(C(=O)Nc4cccc(Cl)c4)CC3)c2cc1OC [Compound 39, N-(3-Chlorophenyl)-4-(6,7-dimethoxy-4-quinazolinyl)-1-piperazinecarboxamide]
melting point: 223 to 224 °C

COc1cc2ncnc(N3CCN(C(=O)Nc4ccc(Cl)cc4)CC3)c2cc1OC [Compound 40, N-(4-Chlorophenyl)-4-(6,7-dimethoxy-4-quinazolinyl)-1-piperazinecarboxamide]
melting point: 217 to 219 °C

COc1cc2ncnc(N3CCN(C(=S)NCc4ccc(Cl)cc4)CC3)c2cc1OC [Compound 42, N-(4-Chlorobenzyl)-4-(6,7-dimethoxy-4-quinazolinyl)-1-piperazinethiocarboxamide]
melting point: 218 to 220 °C

COc1cc2ncnc(N3CCN(C(=O)NS(=O)(=O)c4ccc(Cl)cc4)CC3)c2cc1OC [Compound 43, N-(4-Chlorobenzenesulfonyl)-4-(6,7-dimethoxy-4quinazolinyl)-1-piperazinecarboxamide]
melting point: 228 to 234 °C

COc1cc2ncnc(N3CCN(C(=O)Nc4cccc(Br)c4)CC3)c2cc1OC [Compound 44, N-(3-Bromophenyl)-4-(6,7-dimethoxy-4-quinazolinyl)-1-piperazinecarboxamide]
melting point: 221 to 222 °C

From US6472391B2, “Nitrogen-containing heterocyclic compounds” (Millennium Pharmaceuticals, Inc., priority 1996, dated 2002)
